Laboratory results from patent publication US8119661B2, “Piperidine derivatives and their use as muscarinic receptor modulators” (AstraZeneca AB, priority 2007, dated 2012).

How the values were obtained:
[1] = biological target: T1, hM3 (human Muscarinic receptor subtype 3) (Homo sapiens, UniProt P20309); experiment: Human M3 calcium mobilization FLIPR assay; type: cell-based; conditions: CHO cells expressing hM3, intracellular Ca2+ release
T1 construct: expressed in transfected cells; host or cells: CHO cells (Chinese hamster ovary cells, ATCC)
T1 sequence (P20309 whole entry): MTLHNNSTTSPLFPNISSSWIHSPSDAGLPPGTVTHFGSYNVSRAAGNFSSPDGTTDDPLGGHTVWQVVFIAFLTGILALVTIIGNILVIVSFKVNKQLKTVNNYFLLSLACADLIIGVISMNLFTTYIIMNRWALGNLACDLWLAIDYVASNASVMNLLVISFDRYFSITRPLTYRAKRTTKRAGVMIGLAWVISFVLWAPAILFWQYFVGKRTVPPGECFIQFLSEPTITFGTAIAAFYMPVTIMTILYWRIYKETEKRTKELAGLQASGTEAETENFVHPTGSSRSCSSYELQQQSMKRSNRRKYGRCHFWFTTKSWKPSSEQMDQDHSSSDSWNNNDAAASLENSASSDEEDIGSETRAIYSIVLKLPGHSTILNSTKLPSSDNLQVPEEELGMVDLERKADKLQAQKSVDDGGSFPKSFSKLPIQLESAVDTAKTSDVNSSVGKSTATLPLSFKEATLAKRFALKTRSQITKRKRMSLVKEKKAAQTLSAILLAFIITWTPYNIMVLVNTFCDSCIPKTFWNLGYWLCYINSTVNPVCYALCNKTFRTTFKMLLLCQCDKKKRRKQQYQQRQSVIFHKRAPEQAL
Protocol: (§1) The compound activity in the present invention (EC50 or IC50) is measured using a 384 plate-based imaging assay that monitors drug induced intracellular Ca^2+ release in whole cells. Activation of hM1 (human Muscarinic receptor subtype 1, gene bank access NM_000738), rM1 (rat Muscarinic receptor subtype 1, gene bank access NM_080773), hM3 (human Muscarinic receptor subtype 3, gene bank access NM_000740NM_000740) and hM5 (human Muscarinic receptor subtype 5, gene bank access NM_0121258), receptors expressed in CHO cells (Chinese hamster ovary cells, ATCC) is quantified in a Molecular Devices FLIPR II™ instrument as an increase in fluorescent signal. Inhibition of hM3 and hM5 by compounds is determined by the decrease in fluorescent signal in response to 2 nM acetylcholine activation.
(§2) Prior to experiment, the cell culture medium is removed from the plates by inversion. […] Plates are incubated at 37° C. for 60 minutes prior to start the experiment. The incubation is terminated by washing the cells four times in assay buffer, leaving a residual 25 μl buffer per well. Cell plates are then transferred to the FLIPR, ready for compound additions.
(§3) The day of experiment, acetylcholine and compounds are diluted in assay buffer in three-fold concentration range (10 points serial dilution) for addition by FLIPR instrument. For all calcium assays, a baseline reading is taken for 10 seconds followed by the addition of 12.5 μl of compounds, resulting in a total well volume of 37.5 μl. Data is collected every second for 60 pictures and then every 6 seconds for 20 pictures prior to the addition of agonist. For hM3 and hM5, before agonist addition, a second baseline reading is taken for 10 seconds followed by the addition of 12.5 μl of agonist or buffer, producing a final volume of 50 μl. After agonist stimulation, the FLIPR continues to collect data every second for 60 pictures and then every 6 seconds for 20 pictures. The fluorescence emission is read using filter 1 (emission 510-570 nm) by the FLIPR on board CCD camera.
(§4) Calcium mobilization output data are calculated as the maximal relative fluorescence unit (RFU) minus the minimal value for both compound and agonist reading frame (except for hM1 and rM1 using only the maximal RFU). Data are analyzed using sigmoidal fits of a non-linear curve-fitting program (XLfit version 4.2.2 Excel add-in version 4.2.2 build 18 math 1Q version 2.1.2 build 18). All pEC50 and pIC50 values are reported as arithmetic means±standard error of mean of ‘n’ independent experiments.

[2] = biological target: T2, hM1 (human Muscarinic receptor subtype 1) (Homo sapiens, UniProt P11229); experiment: Human M1 calcium mobilization FLIPR assay; type: cell-based; conditions: CHO cells expressing hM1, intracellular Ca2+ release
T2 construct: expressed in transfected cells; host or cells: CHO cells (Chinese hamster ovary cells, ATCC)
T2 sequence (P11229 1-460): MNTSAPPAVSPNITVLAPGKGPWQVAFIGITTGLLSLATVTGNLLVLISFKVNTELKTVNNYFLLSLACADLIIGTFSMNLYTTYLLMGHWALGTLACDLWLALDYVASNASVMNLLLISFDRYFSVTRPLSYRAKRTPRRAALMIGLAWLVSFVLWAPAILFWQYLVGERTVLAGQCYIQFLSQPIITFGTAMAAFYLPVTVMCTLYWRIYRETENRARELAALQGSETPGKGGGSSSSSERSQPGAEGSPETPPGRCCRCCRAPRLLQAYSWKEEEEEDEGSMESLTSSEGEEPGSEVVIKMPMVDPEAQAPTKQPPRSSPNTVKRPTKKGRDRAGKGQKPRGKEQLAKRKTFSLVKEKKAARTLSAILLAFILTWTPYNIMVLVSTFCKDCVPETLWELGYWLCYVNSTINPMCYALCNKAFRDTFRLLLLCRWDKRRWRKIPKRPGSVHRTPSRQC
Protocol: as §1, §2, §3, §4

[3] = biological target: T3, cloned human M4 receptor (Homo sapiens, UniProt P08173); experiment: hM4 receptor GTPγS binding; type: biochemical; conditions: CHO membranes expressing hM4, [35S]GTPγS binding
T3 construct: purchased Perkin-Elmer RBHM4M; host or cells: CHO cell membranes
T3 sequence (P08173 1-479): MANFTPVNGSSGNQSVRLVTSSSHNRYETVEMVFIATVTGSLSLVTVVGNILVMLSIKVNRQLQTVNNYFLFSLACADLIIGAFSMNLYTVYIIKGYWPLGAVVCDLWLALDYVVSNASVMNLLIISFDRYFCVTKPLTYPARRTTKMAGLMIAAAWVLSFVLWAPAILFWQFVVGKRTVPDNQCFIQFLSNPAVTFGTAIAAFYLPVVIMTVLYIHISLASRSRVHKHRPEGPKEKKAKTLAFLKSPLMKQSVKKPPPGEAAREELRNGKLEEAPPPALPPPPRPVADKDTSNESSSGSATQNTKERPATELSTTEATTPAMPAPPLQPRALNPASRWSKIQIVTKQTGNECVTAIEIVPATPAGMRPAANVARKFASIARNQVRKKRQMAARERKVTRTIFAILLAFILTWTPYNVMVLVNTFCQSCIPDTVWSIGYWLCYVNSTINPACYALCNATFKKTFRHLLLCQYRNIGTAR
Protocol: Membranes produced from Chinese hamster ovary cells (CHO) expressing the cloned human M4 receptor (human Muscarinic receptor subtype 4, gene bank access NM_000741), are obtained from Perkin-Elmer (RBHM4M). The membranes are thawed at 37° C., passed 3 times through a 23-gauge blunt-end needle, diluted in the GTPγS binding buffer (50 mM Hepes, 20 mM NaOH, 100 mM NaCl, 1 mM EDTA, 5 mM MgCl2, pH 7.4, 100 μM DTT). The EC50, IC50 and Emax of the compounds of the invention are evaluated from 10-point dose-response curves (three fold concentration range) done in 60 μl in 384-well non-specific binding surface plate (Corning). Ten microliters from the dose-response curves plate (5× concentration) are transferred to another 384 well plate containing 25 μl of the following: 10 μg of hM4 membranes, 500 μg of Flashblue beads (Perkin-Elmer) and GDP 40 μM. An additional 15 μl containing 3.3× (60,000 dpm) of GTPγ^35S (0.4 nM final) are added to the wells resulting in a total well volume of 50 μl. Basal and maximal stimulated [^35S]GTPγS binding are determined in absence and presence of 30 μM final of acetylcholine agonist. The membranes/beads mix are pre-incubated for 15 minutes at room temperature with 40 μM GDP prior to distribution in plates (20 μM final). The reversal of acetylcholine-induced stimulation (10 μM final) of [^35S]GTPγS binding is used to assay the antagonist properties (IC50) of the compounds. The plates are incubated for 60 minutes at room temperature then centrifuged at 400 rpm for 5 minutes. The radioactivity (cpm) is counted in a Trilux (Perkin-Elmer).
Values of EC50, IC50 and Emax are obtained using sigmoidal fits of a non-linear curve-fitting program (XLfit version 4.2.2 Excel add-in version 4.2.2 build 18 math 1Q version 2.1.2 build 18) of percent stimulated [^35S]GTPγS binding vs. log(molar ligand). All pEC50 and pIC50 values are reported as arithmetic means±standard error of mean of ‘n’ independent experiments.

Row | SMILES | EC50 [1] [nM] | EC50 [2] [nM] | EC50 [3] [nM]
1 | CCOC(=O)N1CCC(C)(N2CCC(N3C(=O)N[C@H]4CCCC[C@@H]43)CC2)C1 (mixture of isomers) [Example 07, Ethyl 3-[4-[(3aS,7aS)-2-oxo-3a,4,5,6,7,7a-hexahydro-3H-benzoimidazol-1-yl]-1-piperidyl]-3-methyl-pyrrolidine-1-carboxylate] | > 40000 | 14 | > 21000
2 | CC1(N2CCC(N3C(=O)N[C@H]4CCCC[C@@H]43)CC2)CCN(C(=O)OCCF)C1 (mixture of isomers) [Example 08, 2-fluoroethyl 3-[4-[(3aS,7aS)-2-oxo-3a,4,5,6,7,7a-hexahydro-3H-benzoimidazol-1-yl]-1-piperidyl]-3-methyl-pyrrolidine-1-carboxylate] |  | 69 | > 30000
3 | C#CCOC(=O)N1CCC(C)(N2CCC(N3C(=O)N[C@H]4CCCC[C@@H]43)CC2)C1 (mixture of isomers) [Example 09, Prop-2-ynyl 3-[4-[(3aS,7aS)-2-oxo-3a,4,5,6,7,7a-hexahydro-3H-benzoimidazol-1-yl]-1-piperidyl]-3-methyl-pyrrolidine-1-carboxylate] | > 40000 | < 3.6 | > 13000
4 | COC(=O)N1CCC(C)(N2CCC(N3C(=O)N[C@H]4CCCC[C@@H]43)CC2)C1 (mixture of isomers) [Example 10, Methyl 3-[4-[(3aS,7aS)-2-oxo-3a,4,5,6,7,7a-hexahydro-3H-benzoimidazol-1-yl]-1-piperidyl]-3-methyl-pyrrolidine-1-carboxylate] |  | 69 | > 30000
5 | CCOC(=O)N1CCC(C)(N2CCC(N3C(=O)N[C@@H]4CCCC[C@H]43)CC2)C1 (mixture of isomers) [Example 11, Ethyl 3-[4-[(3aR,7aR)-2-oxo-3a,4,5,6,7,7a-hexahydro-3H-benzoimidazol-1-yl]-1-piperidyl]-3-methyl-pyrrolidine-1-carboxylate] |  | 55 | > 30000
6 | CCOC(=O)N1CCC(C)(N2CCC(N3C(=O)N[C@@H]4CCCC[C@@H]43)CC2)CC1 (relative stereo) [Example 12, Ethyl 4-[4-[(cis)-2-oxo-3a,4,5,6,7,7a-hexahydro-3H-benzoimidazol-1-yl]-1-piperidyl]-4-methyl-piperidine-1-carboxylate] | > 40000 | 11 | > 4000
7 | CC(C)OC(=O)N1CCC(C)(N2CCC(N3C(=O)N[C@@H]4CCCC[C@@H]43)CC2)CC1 (relative stereo) [Example 13, Propan-2-yl 4-[4-[(cis)-2-oxo-3a,4,5,6,7,7a-hexahydro-3H-benzoimidazol-1-yl]-1-piperidyl]-4-methyl-piperidine-1-carboxylate] | > 40000 | 54 | > 30000
8 | CC#CCOC(=O)N1CCC(C)(N2CCC(N3C(=O)N[C@H]4CCCC[C@@H]43)CC2)C1 (single isomer, unassigned) [Example 19] |  | 4.9 | 919
9 | CCOC(=O)N1CCC(C)(N2CCC(N3C(=O)N[C@H]4CCCC[C@@H]43)CC2)C1 (single isomer, unassigned) [Example 21] | > 22100 | 18.4 | > 90000
10 | CCOC(=O)N1CCC(C)(N2CCC(N3C(=O)N[C@H]4CCCC[C@@H]43)CC2)C1 (single isomer, unassigned) [Example 22] | > 25600 | 3 | 3470
11 | CCOC(=O)N1CCC(C)(N2CCC(N3C(=O)C[C@@H]4CCCC[C@H]43)CC2)C1 (stereo in doubt) [Example 23, Ethyl 3-[4-[(3aS,7aR)-2-oxo-3a,4,5,6,7,7a-hexahydro-3H-indol-1-yl]-1-piperidyl]-3-methyl-pyrrolidine-1-carboxylate] | > 120000 | 22 | 17000
12 | CCOC(=O)N1CCC(C)(N2CCC(N3C(=O)N[C@H]4CCCC[C@@H]43)CC2)CC1 [Example 01, Ethyl 4-[4-[(3aS,7aS)-2-oxo-3a,4,5,6,7,7a-hexahydro-3H-benzoimidazol-1-yl]-1-piperidyl]-4-methyl-piperidine-1-carboxylate] | 1400 | 1.9 | > 1200
13 | CC(C)OC(=O)N1CCC(C)(N2CCC(N3C(=O)N[C@H]4CCCC[C@@H]43)CC2)CC1 [Example 02, Propan-2-yl 4-[4-[(3aS,7aS)-2-oxo-3a,4,5,6,7,7a-hexahydro-3H-benzoimidazol-1-yl]-1-piperidyl]-4-methyl-piperidine-1-carboxylate] | > 40000 | 4.4 | > 30000
14 | CC1(N2CCC(N3C(=O)N[C@H]4CCCC[C@@H]43)CC2)CCN(C(=O)C2CC2)CC1 [Example 03, (3aS,7aS)-1-[1-[1-(cyclopropanecarbonyl)-4-methyl-4-piperidyl]-4-piperidyl]-3a,4,5,6,7,7a-hexahydro-3H-benzoimidazol-2-one] | > 40000 | < 7.1 | > 6500
15 | C#CCOC(=O)N1CCC(C)(N2CCC(N3C(=O)N[C@H]4CCCC[C@@H]43)CC2)CC1 [Example 17, prop-2-ynyl 4-[4-[(3aS,7aS)-2-oxo-3a,4,5,6,7,7a-hexahydro-3H-benzimidazol-1-yl]-1-piperidyl]-4-methyl-piperidine-1-carboxylate] |  | 1.5 | > 30000
